Like-named read-outs stand apart in the source and are kept apart here.
Columns and labels:
[1] = test system: Arabidopsis seed germination and hypocotyl growth; experiment: Arabidopsis seed germination and hypocotyl growth; type: in vivo; conditions: − = none; for Hypocotyl Growth Inhibition: lowest concentration that inhibited hypocotyl growth in wells where seeds germinated; for minimal effective concentration: Table VIII, tested at 10 or 50 μM, lowest inhibiting concentration
Protocol: We germinated seeds from wild type on ½× strength Murashige and Skoog salts growth medium containing either 10 or 50 μM for all 62 compounds as well as 1 μM (+)-ABA and mock controls. […] To investigate if the any of the compounds are sufficient to control vegetative ABA responses, we treated three week old Arabidopsis plants with aqueous solutions containing 0.02% Silwet and either 50 μM of selected N-acylsulfonamides, 50 μM ABA or 0.1% DMSO (the carrier solvent for the compounds tested). The leaf temperatures were subsequently examined using a thermal imaging camera 24 hours after treatment. It is well known that ABA-induced guard cell closure reduces transpiration, which leads to increases in leaf temperatures. It has been estimated that a 1° C. increase in leaf temperature correlates with a decrease in transpiration rates by approximately 50% (Sirault et al., 2009). Since guard cell aperture is the primary determinant of transpiration rates, thermal imaging is a useful way to indirectly infer relative transpiration rates and, indirectly, relative degrees of guard cell opening at the whole plant level.
(§1) Additional compounds were tested for biological activity following the procedures of Example 1 with minor modifications.
For the germination inhibition experiment, the compounds were tested at 10 and 50 uM. The amounts shown are the lowest of the two concentrations that either inhibited germination or hypocotyl growth in wells where seeds germinated.
For the germination test, the compounds were tested at 1, 5, 10, 25 and 50 uM. The amounts shown are the lowest of the concentrations that either inhibited germination or hypocotyl growth in the wells where seeds germinated.

PYL9 = target: T1, PYL9 (Arabidopsis thaliana, UniProt Q84MC7); experiment: receptor-mediated PP2C (HAB1) inhibition in vitro assay; type: biochemical; conditions: compound at 25 μM; control without agonist = 100%
T1 construct: 6X-His; made in house; host or cells: E. coli BL21[DE3]pLysS
T1 sequence (Q84MC7 1-187): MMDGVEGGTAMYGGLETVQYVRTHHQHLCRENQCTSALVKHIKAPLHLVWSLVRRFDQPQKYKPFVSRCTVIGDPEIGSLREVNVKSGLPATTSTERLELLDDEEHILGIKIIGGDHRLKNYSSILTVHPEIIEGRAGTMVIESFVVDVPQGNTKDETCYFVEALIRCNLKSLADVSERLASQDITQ
T1 sequence (Q9CAJ0 23-511 partner): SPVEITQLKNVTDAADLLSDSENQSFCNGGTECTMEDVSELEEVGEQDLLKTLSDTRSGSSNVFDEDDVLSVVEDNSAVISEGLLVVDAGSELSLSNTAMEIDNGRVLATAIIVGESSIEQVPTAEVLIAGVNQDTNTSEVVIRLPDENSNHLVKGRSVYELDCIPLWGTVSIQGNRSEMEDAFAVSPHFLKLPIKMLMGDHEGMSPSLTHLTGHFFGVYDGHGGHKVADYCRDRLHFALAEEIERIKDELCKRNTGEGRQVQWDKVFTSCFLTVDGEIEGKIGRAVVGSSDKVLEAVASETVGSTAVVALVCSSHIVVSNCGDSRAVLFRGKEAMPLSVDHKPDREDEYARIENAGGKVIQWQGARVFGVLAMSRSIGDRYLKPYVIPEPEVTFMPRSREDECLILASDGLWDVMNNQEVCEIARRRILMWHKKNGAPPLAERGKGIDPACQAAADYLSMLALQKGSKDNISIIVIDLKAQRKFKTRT
Protocol: (§2) A family of 62 structurally related N-acyl sulfonamides (Tables I-V) were tested for ABA agonist activity using multiple receptor-mediated PP2C inhibition in vitro assays (Park et al., 2009). […] The constructs utilized for protein expression have been previously described (Okamoto et al. 2013). For constructs encoding 6X-His-fusion proteins (all receptors except PYL11), the coding sequences were of the receptors were cloned in the vector pET28, expressed in BL21[DE3]pLysS E. coli host cells at 18° C. overnight, and subsequently purified from sonicated lysates using Ni-NTA agarose (Qiagen, USA), according to the manufacturer's instructions. PYL11 was constructed as a maltose binding protein fusion in the vector pMAL-c, expressed in BL21┌DE3┐pLysS host cells and purified using amylose resin (New England Biolabs) as described by the manufacturer. Recombinant GST-HAB1 was expressed and purified as described previously (Park et al., 2009). PP2C activity assays were conducted using the fluorogenic phosphatase substrate 4-methylumbelliferyl-phosphate. Recombinant receptors and HAB1 were used to examine ligand-induced PP2C inactivation in response to multiple test compounds. Enzyme inhibition assays were conducted using the following assay conditions: 50 nM GST-PP2C, 100 mM Tris-OAc (pH 7.9), 100 mM NaCl, 1 mM MnCl2, 1% β-mercaptoethanol. […] Because of this, the ratio of each receptor used in the PP2C-inhibitions assays was established empirically as the minimum fold-excess of receptor required to elicit maximal PP2C inhibition at a saturating ABA concentration (10 μM).
(§3) Based on this criterion, we used a ratio of 2:1 receptor in the assays described herein.
(§4) Using the above assay conditions, compounds were tested at 25 μM for agonist activity on PYL4, PYL5, PYL8 and PYL9. […] Consequently, a subset of the compounds was tested at multiple concentrations against 11 receptors so that IC50 values and receptor selectivity profiles could be examined. […] Thus, the N-acylsulfonamide agonists disclosed are selective for monomeric receptors.
as §1
(§5) For these in vitro receptor assays, the compounds listed were tested in in vitro PP2C inhibition assays with 50 uM of the test compound except for ABA (10 uM). IC50s were calculated from dose curves, but only for selected compounds.

PYL8 = target: T2, PYL8 (Arabidopsis thaliana, UniProt Q9FGM1); experiment: as above; type: biochemical; conditions: compound at 25 μM; control without agonist = 100%
T2 construct: 6X-His; made in house; host or cells: E. coli BL21[DE3]pLysS
T2 sequence (Q9FGM1 1-188): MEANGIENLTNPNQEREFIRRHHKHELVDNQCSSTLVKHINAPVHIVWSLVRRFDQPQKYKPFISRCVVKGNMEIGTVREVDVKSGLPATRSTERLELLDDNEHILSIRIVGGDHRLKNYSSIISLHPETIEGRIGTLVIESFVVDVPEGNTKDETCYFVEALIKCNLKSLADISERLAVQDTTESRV
T2 sequence (Q9CAJ0 23-511 partner): T1 sequence (Q9CAJ0 23-511 partner)
Protocol: as §2, §3, §4, §1, §5

PYL4 = target: T3, PYL4 (Arabidopsis thaliana, UniProt O80920); experiment: as above; type: biochemical; conditions: compound at 25 μM; control without agonist = 100%
T3 construct: 6X-His; made in house; host or cells: E. coli BL21[DE3]pLysS
T3 sequence (O80920 1-207): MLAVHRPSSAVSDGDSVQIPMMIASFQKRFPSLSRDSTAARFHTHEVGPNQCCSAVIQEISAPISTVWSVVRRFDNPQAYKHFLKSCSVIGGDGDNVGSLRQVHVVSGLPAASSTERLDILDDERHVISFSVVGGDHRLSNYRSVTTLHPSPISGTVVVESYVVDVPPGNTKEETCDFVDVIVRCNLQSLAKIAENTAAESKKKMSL
T3 sequence (Q9CAJ0 23-511 partner): T1 sequence (Q9CAJ0 23-511 partner)
Protocol: as §2, §3, §4, §1, §5

PYL5 = target: T4, PYL5 (Arabidopsis thaliana, UniProt Q9FLB1); experiment: as above; type: biochemical; conditions: compound at 25 μM; control without agonist = 100%
T4 construct: 6X-His; made in house; host or cells: E. coli BL21[DE3]pLysS
T4 sequence (Q9FLB1 1-203): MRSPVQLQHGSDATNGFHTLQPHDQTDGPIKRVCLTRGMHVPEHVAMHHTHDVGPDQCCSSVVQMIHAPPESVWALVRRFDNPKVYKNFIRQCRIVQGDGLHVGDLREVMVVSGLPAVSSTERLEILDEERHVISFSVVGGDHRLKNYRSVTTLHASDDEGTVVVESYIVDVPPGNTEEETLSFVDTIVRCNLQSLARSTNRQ
T4 sequence (Q9CAJ0 23-511 partner): T1 sequence (Q9CAJ0 23-511 partner)
Protocol: as §2, §3, §4, §1, §5

[2] = Germination Inhibition II, tested at 10 and 50 uM
[3] = read-out: Hypocotyl Growth Inhibition

Row | PP2C Activity (25 μm) PYL9 (PYL9) [%] | PP2C Activity (25 μm) PYL8 (PYL8) [%] | PP2C Activity (25 μm) PYL4 (PYL4) [%] | PP2C Activity (25 μm) PYL5 (PYL5) [%] | remaining activity at 25 µM (PYL9) [%] | remaining activity at 25 µM (PYL8) [%] | remaining activity at 25 µM (PYL4) [%] | remaining activity at 25 µM (PYL5) [%] | Structure (SMILES) | Hypocotyl Growth Inhibition [1, 2] [µM] | minimal effective concentration [1, 3] [µM] | Germination Inhibition ([1]; Germination Inhibition II, tested at 10 and 50 uM, lowest of the two concentrations that inhibited) [µM] | minimal effective concentration ([1]; ABA at 1 μM, read-out: Germination Inhibition) [µM]
1 | 83 | 89 | 96 | 106 |  |  |  |  | CC(C)(C(=O)NS(=O)(=O)Cc1ccccc1C#N)c1ccccc1 [Compound 1] | 50 | 50 |  | 
2 | 47 | 69 | 89 | 23 |  |  |  |  | CC(C)(C(=O)NS(=O)(=O)Cc1ccc(C#N)cc1)c1ccc(Br)cc1 [Compound 2] | 10 | 10 | 50 | 50
3 | 36 | 59 | 97 | 106 |  |  |  |  | CC(C)(C(=O)NS(=O)(=O)Cc1ccc(F)cc1)c1ccccc1 [Compound 4] | 50 | 50 |  | 
4 | 58 | 62 | 93 | 44 |  |  |  |  | CC(C)(C(=O)NS(=O)(=O)Cc1ccc(C#N)cc1)c1ccc(C(F)(F)F)cc1 [Compound 11] |  |  |  | 
5 | 108 | 108 | 97 | 103 |  |  |  |  | CC(C)COc1ccc(C(C)(C)C(=O)NS(=O)(=O)Cc2ccc(C#N)cc2)cc1 [Compound 14] |  |  |  | 
6 | 102 | 98 | 89 | 89 |  |  |  |  | COc1ccc(C(C)(C)C(=O)NS(=O)(=O)Cc2ccc(C#N)cc2)cc1OC [Compound 21] |  |  |  | 
7 | 49 | 72 | 96 | 95 |  |  |  |  | CC(C)(C(=O)NS(=O)(=O)Cc1ccc2cccnc2c1)c1ccccc1 [Compound 55] |  |  |  | 
8 | 108 | 106 | 94 | 105 |  |  |  |  | CC(=O)N1CCC(C(=O)NS(=O)(=O)Cc2ccc(C#N)cc2)(c2ccccc2)CC1 [Compound 56] |  |  |  | 
9 | 39 | 56 | 91 | 100 |  |  |  |  | N#Cc1ccc(CS(=O)(=O)NC(=O)C2(c3cccc(F)c3)CCOCC2)cc1 [Compound 57] |  |  |  | 
10 | 83 | 84 | 96 | 83 |  |  |  |  | N#Cc1ccc(CS(=O)(=O)NC(=O)C2(c3cccc(Cl)c3)CCOCC2)cc1 [Compound 58] |  |  |  | 
11 | 98 | 97 | 92 | 65 |  |  |  |  | N#Cc1ccc(CS(=O)(=O)NC(=O)C2(c3ccc(C(F)(F)F)cc3)CCOCC2)cc1 [Compound 59] |  |  |  | 
12 | 101 | 101 | 90 | 70 |  |  |  |  | N#Cc1ccc(CS(=O)(=O)NC(=O)C2(c3ccccc3)CCN(S(=O)(=O)c3ccccc3)CC2)cc1 [Compound 60] |  |  |  | 
13 |  |  |  |  | 100 | 100 | 98 | 103 | O=C(NS(=O)(=O)Cc1cccc2cccnc12)C1(c2ccccc2)CC1 [Compound 62] |  |  |  | 

Row | Structure (SMILES) | PP2C Activity (25 μm) PYL9 (PYL9) [%] | PP2C Activity (25 μm) PYL8 (PYL8) [%] | PP2C Activity (25 μm) PYL4 (PYL4) [%] | PP2C Activity (25 μm) PYL5 (PYL5) [%] | remaining activity at 25 µM (PYL9) [%] | remaining activity at 25 µM (PYL8) [%] | remaining activity at 25 µM (PYL4) [%] | remaining activity at 25 µM (PYL5) [%] | Hypocotyl Growth Inhibition [1, 2] [µM] | minimal effective concentration [1, 3] [µM] | Germination Inhibition ([1]; Germination Inhibition II, tested at 10 and 50 uM, lowest of the two concentrations that inhibited) [µM] | minimal effective concentration ([1]; ABA at 1 μM, read-out: Germination Inhibition) [µM]
14 | CCc1ccc(C(C)(C)C(=O)NS(=O)(=O)Cc2ccc(C#N)cc2)cc1 [Compound 20] | 98 | 104 | 95 | 88 |  |  |  |  |  |  |  | 
15 | N#Cc1ccc(CS(=O)(=O)NC(=O)C2(c3ccc(Br)cc3)CCC2)cc1 [Compound 31] | 74 | 80 | 97 | 77 |  |  |  |  |  |  |  | 
16 | Cc1cc(C)cc(C2(C(=O)NS(=O)(=O)Cc3ccc(C#N)cc3)CC2)c1 [Compound 36] | 94 | 98 | 91 | 34 |  |  |  |  |  |  |  | 
17 | CC(C)(C)c1ccc(C2(C(=O)NS(=O)(=O)Cc3ccc(C#N)cc3)CC2)cc1 [Compound 40] | 103 | 106 | 92 | 101 |  |  |  |  |  |  |  | 
18 | N#Cc1ccc(CS(=O)(=O)NC(=O)C2(c3ccc(C(F)(F)F)cc3)CC2)cc1 [Compound 45] | 53 | 74 | 93 | 30 |  |  |  |  |  |  |  | 
19 | N#Cc1ccc(CS(=O)(=O)NC(=O)C2(c3ccccc3F)CC2)cc1 [Compound 47] | 75 | 86 | 95 | 28 |  |  |  |  |  |  |  | 
20 | CCOc1ccc(C2(C(=O)NS(=O)(=O)Cc3ccc(C#N)cc3)CC2)cc1 [Compound 52] | 98 | 91 | 94 | 99 |  |  |  |  |  |  |  | 
